We go through 6 compounds from patent US20260201008A1, “SECRETIN-DERIVED GLP1R SELECTIVE AGONISTS” (GUBRA A/S, priority 2023, published 2026).

A short description of data set [1]: Fibril formation of crude library peptides (Thioflavin T). It is filed as physicochemical. Also on record: key: average ThT fluorescence emission at 480 nm (ex 450 nm), raw units. Particulars: Physical stability of peptides. How it is done: (§1) Peptides were dissolved in buffers (50 mM sodium acetate at pH 4.0, or 50 mM sodium phosphate at pH 7.0) to 267 μM and incubated for 1-2 hours at room temperature. The samples were then divided into two replicates of 80 μl in a black 384 well plate (μ-clear, Greiner Bio-One) and mixed with Thioflavin T (ThT) to a final concentration of 4 μM. The plate was centrifuged for 2 min at 2000 rpm to remove air bubbles, sealed, and placed in a plate reader (CLARIOstar, BMG). Firstly, turbidity of the samples was measured as the absorbance at 600 nm. Secondly, the plate reader temperature was set to 40° C. and the fluorescence was measured every 10 min for 72 hours by exciting the ThT at 450 nm and measuring the emission at 480 nm. Samples were stressed by shaking the plate at 700 rpm (linear) for five minutes before every measurement, and fibril formation was determined as the average emission for each sample.

Data set [2] has as its target GLP1R (Homo sapiens, UniProt P43220). Briefly: hGLP1R potency, cAMP accumulation in CHO-K1 cells stably overexpressing hGLP1R. Type of data set: cell-based. Also noted: host or cells: CHO-K1. The settings on record: for Selectivity: SCTR EC50/GLP1R EC50 ratio. The method in brief:
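Thawed cells go straight into buffer containing 0.5 mM IBMX and 0.05% casein, get graded compound doses for 30 min at room temperature, and are then assayed for accumulated cAMP by time-resolved FRET. Human GLP-1(7-36) serves as positive control; EC50 is derived by nonlinear regression.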

A short description of data set [3]: Turbidity of crude library peptides (absorbance at 600 nm). Particulars: Physical stability of peptides. Type of data set: physicochemical. How it is done: as §1
The target of data set [4] is SCTR (Homo sapiens, UniProt P47872). Briefly: hSCTR potency, cAMP accumulation in CHO-K1 cells stably overexpressing hSCTR. Type of data set: cell-based. Also noted: alternatively Euroscreen ES-712-AF; FAST-0161L; host or cells: CHO-K1. An outline of the steps: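 Read-out is TR-FRET cAMP detection, recorded one hour after reagent addition, in CHO-K1 cells stably overexpressing hSCTR. Cells in DPBS containing 0.05% casein and 0.5 mM IBMX are exposed to graded peptide doses for 30 min at room temperature, with human secretin as reference agonist.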
Sequence of SCTR (P47872 23-440): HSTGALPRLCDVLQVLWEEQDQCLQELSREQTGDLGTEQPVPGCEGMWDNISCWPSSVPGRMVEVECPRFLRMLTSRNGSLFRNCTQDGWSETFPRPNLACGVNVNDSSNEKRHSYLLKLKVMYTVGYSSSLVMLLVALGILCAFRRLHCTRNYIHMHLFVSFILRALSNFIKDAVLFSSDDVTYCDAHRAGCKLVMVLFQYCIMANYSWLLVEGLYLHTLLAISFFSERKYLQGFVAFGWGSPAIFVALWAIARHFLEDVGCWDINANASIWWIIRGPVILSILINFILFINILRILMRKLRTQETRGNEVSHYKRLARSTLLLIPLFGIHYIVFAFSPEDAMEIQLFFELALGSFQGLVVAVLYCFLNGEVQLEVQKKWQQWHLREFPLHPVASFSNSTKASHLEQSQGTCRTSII
On the technique in general: Changes in cAMP serve as a functional read-out for many G protein-coupled receptors.

The mark [5] stands for this setting: cAMP accumulation, CHO-K1 cells overexpressing hGLP1R, read-out: pEC50 hGLPR1 (converted).
Setting [6] is: cAMP accumulation, CHO-K1 cells overexpressing hSCTR, read-out: pEC50 hSCTR (converted).

Where two headings read alike, the source gives them in different places. Numbered stars: 1 amine (or outer) side, 2 acyl side, 3 side chain; on linkers, the order of the positions; unused ones are H or OH. Square brackets hold non-standard residues; d marks the D form. Side chains are listed from the residue outwards. Peptide text beside a SMILES is read from it. * marks the point of attachment. C20 diacid = O=C(O)CCCCCCCCCCCCCCCCCCC(=O)*; γGlu = O=C(O)[C@H](CCC(=O)[*:2])N[*:1]; AEEA = NCCOCCOCC(=O)O; Aib = CC(C)(N)C(=O)O

Sequence of GLP1R (P43220 24-463): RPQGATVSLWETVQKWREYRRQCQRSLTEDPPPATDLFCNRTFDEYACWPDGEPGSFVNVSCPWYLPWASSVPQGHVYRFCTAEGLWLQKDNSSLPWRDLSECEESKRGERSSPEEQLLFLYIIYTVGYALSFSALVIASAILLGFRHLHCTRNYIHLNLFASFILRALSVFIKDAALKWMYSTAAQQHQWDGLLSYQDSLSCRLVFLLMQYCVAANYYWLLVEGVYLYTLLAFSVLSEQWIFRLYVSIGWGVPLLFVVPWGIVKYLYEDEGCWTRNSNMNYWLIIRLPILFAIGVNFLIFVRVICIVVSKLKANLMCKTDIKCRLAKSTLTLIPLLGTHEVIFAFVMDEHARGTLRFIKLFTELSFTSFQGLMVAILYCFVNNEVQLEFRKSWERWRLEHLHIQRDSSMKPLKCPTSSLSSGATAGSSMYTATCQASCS

Take `CC(C)C[C@H](NC(=O)[C@H](CCC(=O)O)NC(=O)[C@H](CCCCNC(=O)COCCOCCNC(=O)COCCOCCNC(=O)CC[C@H](NC(=O)CCCCCCCCCCCCCCCCCCC(=O)O)C(=O)O)NC(=O)[C@H](CC(C)C)NC(=O)[C@H](CCCNC(=N)N)NC(=O)[C@H](CO)NC(=O)[C@@H](NC(=O)[C@H](CC(=O)O)NC(=O)[C@H](CO)NC(=O)[C@@H](NC(=O)[C@H](Cc1ccccc1)NC(=O)[C@@H](NC(=O)CNC(=O)[C@H](CCC(=O)O)NC(=O)C(C)(C)NC(=O)[C@@H](N)Cc1c[nH]cn1)[C@@H](C)O)[C@@H](C)O)C(C)C)C(=O)N[C@@H](C)C(=O)N[C@@H](C)C(=O)N[C@@H](C)C(=O)N[C@@H](CCC(N)=O)C(=O)N[C@@H](CCCNC(=N)N)C(=O)N[C@@H](Cc1ccccc1)C(=O)N[C@@H](CC(C)C)C(=O)N[C@@H](CCC(=O)O)C(=O)N[C@@H](Cc1c[nH]cn1)C(=O)N[C@@H](CC(C)C)C(=O)N[C@H](C(N)=O)C(C)C` [compound 9] (H-H[Aib]EGTFTSDVSRLK([AEEA-AEEA-γGlu-C20 diacid])ELAAAQRFLEHLV-NH2): the Fibril formation in data set [1] is given as 10378. In addition, the Selectivity in data set [2] amounted to 13668. In addition, the EC50 in data set [2] (setting [5]) was 0.0631 nM; in data set [4] (setting [6]) it was 1000 nM. The “Turbidity (pH 7)” value in data set [3] is on record as 0.08.

The compound `CC(C)C[C@H](NC(=O)[C@H](CCC(=O)O)NC(=O)[C@H](CCCCNC(=O)COCCOCCNC(=O)COCCOCCNC(=O)CC[C@H](NC(=O)CCCCCCCCCCCCCCCCCCC(=O)O)C(=O)O)NC(=O)[C@H](CC(C)C)NC(=O)[C@H](CCCNC(=N)N)NC(=O)[C@H](CO)NC(=O)[C@@H](NC(=O)[C@H](CC(=O)O)NC(=O)[C@H](CO)NC(=O)[C@@H](NC(=O)[C@H](Cc1ccccc1)NC(=O)[C@@H](NC(=O)CNC(=O)[C@H](CCC(=O)O)NC(=O)C(C)(C)NC(=O)[C@@H](N)Cc1c[nH]cn1)[C@@H](C)O)[C@@H](C)O)C(C)C)C(=O)N[C@@H](C)C(=O)N[C@@H](C)C(=O)NC(C)(C)C(=O)N[C@@H](CCC(N)=O)C(=O)N[C@@H](CCCNC(=N)N)C(=O)N[C@@H](Cc1ccccc1)C(=O)N[C@@H](CC(C)C)C(=O)N[C@@H](CCC(=O)O)C(=O)N[C@@H](Cc1c[nH]cn1)C(=O)N[C@@H](CC(C)C)C(=O)N[C@H](C(N)=O)C(C)C` [compound 10] (H-H[Aib]EGTFTSDVSRLK([AEEA-AEEA-γGlu-C20 diacid])ELAA[Aib]QRFLEHLV-NH2) registered a Fibril formation in data set [1] of 6765. In data set [2], the Selectivity is on record as 2365. For the same compound, the EC50 in data set [2] (setting [5]) is 0.2 nM; in data set [4] (setting [6]), 501 nM. Moreover, the “Turbidity (pH 7)” value in data set [3] was 0.08.

In data set [1], `CC(C)C[C@H](NC(=O)[C@H](CCC(=O)O)NC(=O)[C@H](CCCCNC(=O)COCCOCCNC(=O)COCCOCCNC(=O)CC[C@H](NC(=O)CCCCCCCCCCCCCCCCCCC(=O)O)C(=O)O)NC(=O)[C@H](CC(C)C)NC(=O)[C@@H](NC(=O)[C@H](CO)NC(=O)[C@@H](NC(=O)[C@H](CC(=O)O)NC(=O)[C@H](CO)NC(=O)[C@@H](NC(=O)[C@H](Cc1ccccc1)NC(=O)[C@@H](NC(=O)CNC(=O)[C@H](CCC(=O)O)NC(=O)C(C)(C)NC(=O)[C@@H](N)Cc1c[nH]cn1)[C@@H](C)O)[C@@H](C)O)C(C)C)[C@@H](C)O)C(=O)N[C@@H](C)C(=O)N[C@@H](C)C(=O)N[C@@H](C)C(=O)N[C@@H](CCC(N)=O)C(=O)N[C@@H](CCCNC(=N)N)C(=O)N[C@@H](Cc1ccccc1)C(=O)N[C@@H](CC(C)C)C(=O)N[C@@H](CCC(=O)O)C(=O)N[C@@H](Cc1c[nH]cn1)C(=O)N[C@@H](CC(C)C)C(=O)N[C@H](C(N)=O)C(C)C` [compound 11] (H-H[Aib]EGTFTSDVSTLK([AEEA-AEEA-γGlu-C20 diacid])ELAAAQRFLEHLV-NH2) yielded a Fibril formation of 7854. For the same compound, the EC50 in data set [2] is 0.0501 nM; in data set [4], 631 nM. Besides, the Selectivity in data set [2] amounted to 11347. The “Turbidity (pH 7)” value in data set [3] came out at 0.08.

Take `CC(C)C[C@H](NC(=O)[C@H](CCC(=O)O)NC(=O)[C@H](CCCCNC(=O)COCCOCCNC(=O)COCCOCCNC(=O)CC[C@H](NC(=O)CCCCCCCCCCCCCCCCCCC(=O)O)C(=O)O)NC(=O)[C@H](CC(C)C)NC(=O)[C@H](CCC(=O)O)NC(=O)[C@H](CO)NC(=O)[C@@H](NC(=O)[C@H](CC(=O)O)NC(=O)[C@H](CO)NC(=O)[C@@H](NC(=O)[C@H](Cc1ccccc1)NC(=O)[C@@H](NC(=O)CNC(=O)[C@H](CCC(=O)O)NC(=O)C(C)(C)NC(=O)[C@@H](N)Cc1c[nH]cn1)[C@@H](C)O)[C@@H](C)O)C(C)C)C(=O)N[C@@H](C)C(=O)N[C@@H](C)C(=O)N[C@@H](CO)C(=O)N[C@@H](CCC(N)=O)C(=O)N[C@@H](CCCNC(=N)N)C(=O)N[C@@H](Cc1ccccc1)C(=O)N[C@@H](CC(C)C)C(=O)N[C@@H](CCC(=O)O)C(=O)N[C@@H](Cc1c[nH]cn1)C(=O)N[C@@H](CC(C)C)C(=O)N[C@H](C(N)=O)C(C)C` [compound 12] (H-H[Aib]EGTFTSDVSELK([AEEA-AEEA-γGlu-C20 diacid])ELAASQRFLEHLV-NH2): the Fibril formation in data set [1] was determined as 7904. For the same compound, in data set [2], the Selectivity stood at 33473. The results for the EC50 in data set [2] (setting [5]) and in data set [4] (setting [6]) were 0.02 nM and 631 nM, respectively. Besides, the “Turbidity (pH 7)” value in data set [3] worked out at 0.09.

For `CC(C)C[C@H](NC(=O)[C@H](Cc1ccccc1)NC(=O)[C@H](CCCNC(=N)N)NC(=O)[C@H](CCC(N)=O)NC(=O)[C@@H](NC(=O)[C@H](C)NC(=O)[C@H](C)NC(=O)C(C)(C)NC(=O)[C@H](CCC(=O)O)NC(=O)[C@H](CCCCNC(=O)COCCOCCNC(=O)COCCOCCNC(=O)CC[C@H](NC(=O)CCCCCCCCCCCCCCCCCCC(=O)O)C(=O)O)NC(=O)[C@H](CC(C)C)NC(=O)[C@H](Cc1ccccc1)NC(=O)[C@H](CO)NC(=O)[C@@H](NC(=O)[C@H](CC(=O)O)NC(=O)[C@H](CO)NC(=O)[C@@H](NC(=O)[C@H](Cc1ccccc1)NC(=O)[C@@H](NC(=O)CNC(=O)[C@H](CCC(=O)O)NC(=O)C(C)(C)NC(=O)[C@@H](N)Cc1c[nH]cn1)[C@@H](C)O)[C@@H](C)O)C(C)C)[C@@H](C)O)C(=O)N[C@@H](CCC(=O)O)C(=O)N[C@@H](Cc1c[nH]cn1)C(=O)N[C@@H](CC(C)C)C(=O)N[C@H](C(N)=O)C(C)C` [compound 13] (H-H[Aib]EGTFTSDVSFLK([AEEA-AEEA-γGlu-C20 diacid])E[Aib]AATQRFLEHLV-NH2), the Fibril formation in data set [1] stood at 16121. The Selectivity in data set [2] is reported as 11130. Further, the EC50 was 0.0316 nM in data set [2] (setting [5]) and 316 nM in data set [4] (setting [6]). In addition, the “Turbidity (pH 7)” value in data set [3] came to 0.08.

`CC(C)C[C@H](NC(=O)[C@H](Cc1ccccc1)NC(=O)[C@H](CCCNC(=N)N)NC(=O)[C@H](CCC(N)=O)NC(=O)[C@H](CCC(N)=O)NC(=O)[C@H](C)NC(=O)[C@H](C)NC(=O)[C@H](CCC(=O)O)NC(=O)[C@H](CCC(=O)O)NC(=O)[C@H](CCCCNC(=O)COCCOCCNC(=O)COCCOCCNC(=O)CC[C@H](NC(=O)CCCCCCCCCCCCCCCCCCC(=O)O)C(=O)O)NC(=O)[C@H](CC(C)C)NC(=O)[C@H](CCC(=O)O)NC(=O)[C@H](CO)NC(=O)[C@@H](NC(=O)[C@H](CC(=O)O)NC(=O)[C@H](CO)NC(=O)[C@@H](NC(=O)[C@H](Cc1ccccc1)NC(=O)[C@@H](NC(=O)CNC(=O)[C@H](CCC(=O)O)NC(=O)C(C)(C)NC(=O)[C@@H](N)Cc1c[nH]cn1)[C@@H](C)O)[C@@H](C)O)C(C)C)C(=O)N[C@@H](CCC(=O)O)C(=O)N[C@@H](Cc1c[nH]cn1)C(=O)N[C@@H](CC(C)C)C(=O)N[C@H](C(N)=O)C(C)C` [compound 14] (H-H[Aib]EGTFTSDVSELK([AEEA-AEEA-γGlu-C20 diacid])EEAAQQRFLEHLV-NH2) had a Fibril formation in data set [1] of 10247. In addition, the Selectivity in data set [2] is reported as 9917. In addition, the figures for the EC50 in data set [2] (setting [5]) and in data set [4] (setting [6]) were 0.02 nM and 200 nM, respectively. Also, the “Turbidity (pH 7)” value in data set [3] is 0.08.
